This note sets out measurements from patent US20250129104A1, “7H-PYRROLO[2,3-D]PYRIMIDINES AND PREPARATION AND USES THEREOF” (BioSplice Therapeutics, Inc., priority 2021, published 2025).

Test [1] concerns Tau phosphorylation at Thr212 (pThr212). Nature of the test: tau phosphorylation assay: phosphoTau (Thr212) AlphaLISA in HEK293T cells transfected with DYRK1A and MAPT. It is filed as cell-based. To be noted: HEK-293T; HEK293T cells transfected with human DYRK1A and MAPT; 18-24 h compound treatment; read-out: pTau (Thr212) EC50. On the procedure:
Representative compounds were screened using the assay procedure for tau phosphorylation activity described below.
HEK293T cells (ATCC, CRL3216) cultured in DMEM (Thermo Fisher Scientific, 10566024) supplemented with 10% FBS (Corning, 35-011-CV) and Penicillin/Streptomycin (Thermo Fisher Scientific, 15140163) were seeded in a 75 cm^2 flask at 8.1×10^6 cells/flask. The HEK293T cells were then transiently transfected with 5 μg DYRK1A (NM_001396) human untagged clone (OriGene, SC314641) and 2.5 μg MAPT (441 a.a. Tau gene) (NM_005910) human untagged clone (OriGene, TP313312) using Lipofectamine 3000 (Thermo Fisher Scientific, L30000015) and incubated for 20-30 hours in a humidified incubator at 37° C. and 5% CO2. Post-incubation, HEK293T cells transfected with the DYRK1A and MAPT expression vectors were harvested and seeded in BioCoat poly-D lysine coated 96-well plates (Corning, 354461) at 3×10^4 cells/well.
The above synthesized compounds were screened using the cell assay procedure to assess decreased Tau phosphorylation at Thr212 (pThr212) described below.
Each compound was dissolved in DMSO (Sigma-Aldrich, D8418-100 mL) as a 10 mM stock. 10 mM stocks were serially diluted 1:3, 10-point dose-response curve and added to the cells with a final concentration ranging from 20 μM to 1.1 nM. Cell were treated with compounds in duplicate and incubated for 18-24 hours in a humidified incubator at 37° C. and 5% CO2.
Following the overnight compound treatment, cells were lysed with 1× Alpha Surefire Ultra Lysis Buffer (Perkin Elmer, ALSU-LB-100ML) complemented with 1× Halt Phosphatase Inhibitor Cocktail (Thermo Fisher Scientific, 78427) and 1× Halt Protease Inhibitor Cocktail (Thermo Fisher Scientific, 78438). Lysates were spun down at 12,000 g for 10 min to remove any cellular debris and 5 μL of lysates were dispensed into a 384-well Opti-Plate (Perkin Elmer, 6007290) for the measurement of Tau phosphorylation in the phosphoTau (Thr212) AlphaLISA assay. Donor antibody, biotinylated HT7Tau (Thermo Fisher Scientific, MN1000B), and acceptor antibody, pThr212Tau (Thermo Fisher Scientific, 44740G) were both added to the cell lysates at a final concentration of 3 nM and incubated for 1 hour at room temperature. Following incubation of the lysates with the donor and acceptor antibodies, anti-rabbit IgG (Fc specific) AlphaLISA acceptor beads (Perkin Elmer, AL104C) were added at a 10 μg/mL final concentration and incubated for 1 hour at room temperature protected from light. Lastly, AlphaScreen streptavidin donor beads (PerkinElmer, 6760002) were added at 40 μg/mL final concentration and incubated for 1 hour at room temperature protected from light. Plates were read at […], and Em=615 nm on the EnVision Multilabel Plate Reader (Perkin Elmer). PhosphoTau (Thr212) AlphaLISA signal was used to plot, draw the curve fitting, and determine each compound's EC50 in Prism (GraphPad).

For test [2], the target named is recombinant DYRK1A kinase (Homo sapiens (Human), UniProt Q13627). Nature of the test: DYRK1A kinase assay (Ser/Thr 18 peptide Z-lyte FRET assay). It is filed as biochemical. To be noted: DYRK1A kinase activity; 15 μM ATP, 1 h room temperature; method text calls the value IC50. Summed up:
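FRET Z-lyte read-out (coumarin/fluorescein ratio, % phosphorylation) after 1 h development; IC50 from non-linear curve fit. Reaction: 0.25 μg/mL recombinant human DYRK1A, Ser/Thr 18 peptide 4 μM, ATP 15 μM, compound in 11-point 1:3 series from 10 μM, 1 h, room temperature, duplicate wells.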

In the case of `C[C@@H](Nc1ncc2c(-c3cc(F)c4nccn4c3)c[nH]c2n1)C(F)(F)F` [Compound 202, (R)-5-(8-Fluoroimidazo[1,2-a]pyridin-6-yl)-N-(1,1,1-trifluoropropan-2-yl)-7H-pyrrolo[2,3-d]pyrimidin-2-amine], the EC50 came to 76 nM in test [1] and 6 nM in test [2].
With `COC[C@H](C)Nc1ncc2c(-c3cc(F)c4nccn4c3)c[nH]c2n1` [Compound 205, (S)-5-(8-Fluoroimidazo[1,2-a]pyridin-6-yl)-N-(1-methoxypropan-2-yl)-7H-pyrrolo[2,3-d]pyrimidin-2-amine], the figures for the EC50 in test [1] and in test [2] were 124 nM and 5.2 nM, respectively.
In the case of `Fc1cc(-c2c[nH]c3nc(NCC4(F)CC4)ncc23)cn2ccnc12` [Compound 208, N-((1-Fluorocyclopropyl)methyl)-5-(8-fluoroimidazo[1,2-a]pyridin-6-yl)-7H-pyrrolo[2,3-d]pyrimidin-2-amine], the EC50 came out at 30 nM in test [1] and 7.1 nM in test [2].
Take `Cc1cnc2c(F)cc(-c3c[nH]c4nc(C5CC5)ncc34)cn12` [Compound 276, 2-Cyclopropyl-5-(8-fluoro-3-methylimidazo[1,2-a]pyridin-6-yl)-7H-pyrrolo [2,3-d]pyrimidine]: the results for the EC50 in test [1] and in test [2] were 657 nM and 28.4 nM, respectively.
With `CC[C@H](C)Nc1ncc2c(-c3cc(F)c4ncc(C)n4c3)c[nH]c2n1` [Compound 285, (S)—N-(sec-Butyl)-5-(8-fluoro-3-methylimidazo[1,2-a]pyridin-6-yl)-7H-pyrrolo[2,3-d]pyrimidin-2-amine], the EC50 in test [1] was found to be 241 nM; in test [2], 12.7 nM.
Regarding `COC[C@H](C)Nc1ncc2c(-c3cc(F)c4ncc(C)n4c3)c[nH]c2n1` [Compound 292, (S)-5-(8-Fluoro-3-methylimidazo[1,2-a]pyridin-6-yl)-N-(1-methoxypropan-2-yl)-7H-pyrrolo[2,3-d]pyrimidin-2-amine], the EC50 came to 509 nM in test [1] and 17 nM in test [2].
For `Cc1cnc2c(F)cc(-c3c[nH]c4nc(NC5CCC(F)(F)CC5)ncc34)cn12` [Compound 301, N-(4,4-Difluorocyclohexyl)-5-(8-fluoro-3-methylimidazo[1,2-a]pyridin-6-yl)-7H-pyrrolo[2,3-d]pyrimidin-2-amine] the same measures were 66 nM and 6.6 nM.
As for `CC(C)(F)CNc1ncc2c(-c3ccc4ncc(C(F)F)n4c3)c[nH]c2n1` [Compound 329, 5-(3-(difluoromethyl)imidazo[1,2-a]pyridin-6-yl)-N-(2-fluoro-2-methylpropyl)-7H-pyrrolo[2,3-d]pyrimidin-2-amine], the values for the EC50 in test [1] and in test [2] were 211 nM and 6.8 nM, respectively.
In the case of `O=C(NCC(F)F)c1cnc2ccc(-c3c[nH]c4nc(C5CC5)ncc34)cn12` [Compound 407, 6-(2-Cyclopropyl-7H-pyrrolo[2,3-d]pyrimidin-5-yl)-N-(2,2-difluoroethyl) imidazo[1,2-a]pyridine-3-carboxamide], the values for the EC50 in test [1] and in test [2] were 11 nM and 1.2 nM, respectively.
Take `CC(C)Cc1ncc2c(-c3cnc4nccn4c3)c[nH]c2n1` [Compound 448, 5-(Imidazo[1,2-a]pyrimidin-6-yl)-2-isobutyl-7H-pyrrolo[2,3-d]pyrimidine]: the figures for the EC50 in test [1] and in test [2] were 245 nM and 9.3 nM, respectively.
As for `FC(F)(F)CCc1ncc2c(-c3cnc4nccn4c3)c[nH]c2n1` [Compound 449, 5-(Imidazo[1,2-a]pyrimidin-6-yl)-2-(3,3,3-trifluoropropyl)-7H-pyrrolo[2,3-d]pyrimidine], the values for the EC50 in test [1] and in test [2] were 497 nM and 9.4 nM, respectively.
Regarding `c1cn2cc(-c3c[nH]c4nc(C5CC5)ncc34)cnc2n1` [Compound 450, 2-Cyclopropyl-5-(imidazo[1,2-a]pyrimidin-6-yl)-7H-pyrrolo[2,3-d]pyrimidine], the EC50 worked out at 980 nM in test [1] and 16.1 nM in test [2].
For `c1cn2cc(-c3c[nH]c4nc(CC5CCC5)ncc34)cnc2n1` [Compound 452, 2-(Cyclobutylmethyl)-5-(imidazo[1,2-a]pyrimidin-6-yl)-7H-pyrrolo[2,3-d]pyrimidine] the same measures were 1220 nM and 20.2 nM.
As to `CC(C)(F)CNc1ncc2c(-c3cnc4nccn4c3)c[nH]c2n1` [Compound 460, N-(2-Fluoro-2-methylpropyl)-5-(imidazo[1,2-a]pyrimidin-6-yl)-7H-pyrrolo [2,3-d]pyrimidin-2-amine], the EC50 in test [1] came out at 57 nM; in test [2] it was 1.5 nM.
For `C[C@@H](Nc1ncc2c(-c3cnc4nccn4c3)c[nH]c2n1)C1CC1` [Compound 469, (R)—N-(1-cyclopropylethyl)-5-(imidazo[1,2-a]pyrimidin-6-yl)-7H-pyrrolo [2,3-d]pyrimidin-2-amine] the same measures were 246 nM and 7.6 nM.
As for `COc1nc(CC(C)C)nc2[nH]cc(-c3cc(F)c4nc(C)n(C(C)C)c4c3)c12` [Compound 497, 5-(4-Fluoro-1-isopropyl-2-methyl-1H-benzo[d]imidazol-6-yl)-2-isobutyl-4-methoxy-7H-pyrrolo[2,3-d]pyrimidine], the results for the EC50 in test [1] and in test [2] were 433 nM and 9.2 nM, respectively.
For `Cc1nc2c(F)cc(-c3c[nH]c4nc(C5CC5)ncc34)cc2n1C(C)C` [Compound 499, 2-Cyclopropyl-5-(4-fluoro-1-isopropyl-2-methyl-1H-benzo[d]imidazol-6-yl)-7H-pyrrolo[2,3-d]pyrimidine] the same measures were 296 nM and 6 nM.
Consider `Cc1nc2c(F)cc(-c3c[nH]c4nc(C5CCC5)ncc34)cc2n1C(C)C` [Compound 500, 2-Cyclobutyl-5-(4-fluoro-1-isopropyl-2-methyl-1H-benzo[d]imidazol-6-yl)-7H-pyrrolo[2,3-d]pyrimidine], for which the EC50 in test [1] is 338 nM; in test [2], 19.8 nM.
For the molecule `Cc1nc2c(F)cc(-c3c[nH]c4nc(NCC(C)(C)C)ncc34)cc2n1C(C)C` [Compound 507, 5-(4-Fluoro-1-isopropyl-2-methyl-1H-benzo[d]imidazol-6-yl)-N-neopentyl-7H-pyrrolo[2,3-d]pyrimidin-2-amine], the EC50 in test [1] is 37 nM; in test [2], 7.2 nM.
Regarding `Cc1nc2c(F)cc(-c3c[nH]c4nc(C5CC5)ncc34)cc2n1C1CCN(C)CC1` [Compound 544, 2-Cyclopropyl-5-(4-fluoro-2-methyl-1-(1-methylpiperidin-4-yl)-1H-benzo[d]imidazol-6-yl)-7H-pyrrolo[2,3-d]pyrimidine], the EC50 stood at 408 nM in test [1] and 12.2 nM in test [2].
For `Cc1nc2ncc(-c3c[nH]c4nc(C5CCC5)ncc34)cc2n1C(C)C` [Compound 588, 6-(2-Cyclobutyl-7H-pyrrolo[2,3-d]pyrimidin-5-yl)-1-isopropyl-2-methyl-1H-imidazo[4,5-b]pyridine], the EC50 in test [1] is 1470 nM; in test [2], 25 nM.
On to `Cc1nc2ccc(-c3c[nH]c4nc(NCC(C)(C)F)ncc34)nc2n1C` [Compound 629, 5-(2,3-Dimethyl-3H-imidazo[4,5-b]pyridin-5-yl)-N-(2-fluoro-2-methylpropyl)-7H-pyrrolo[2,3-d]pyrimidin-2-amine], for which the EC50 in test [1] was determined as 28 nM; in test [2], 531 nM.
For the molecule `Cc1nc2ccc(-c3c[nH]c4nc(N[C@H](C)C(F)(F)F)ncc34)nc2n1CC(F)F` [Compound 646, (R)-5-(3-(2,2-Difluoroethyl)-2-methyl-3H-imidazo[4,5-b]pyridin-5-yl)-N-(1,1,1-trifluoropropan-2-yl)-7H-pyrrolo[2,3-d]pyrimidin-2-amine], the concentration for a half-maximal effect (EC50) stood at 6 nM in test [1] and 5.6 nM in test [2].
